# What was measured:
# [1] = test system: patients with relapsed or refractory multiple myeloma; experiment: Phase 1/2 clinical study of REGN5458 monotherapy; conditions: for Complete response (CR) or stringent CR (sCR) / Overall response rate (ORR) / Partial response (PR) / Very good partial response (VGPR): preliminary results
# [2] = test system: BCMA+ OPM-2-luciferase tumors; experiment: Xenogenic tumor model, i.v. OPM-2-luciferase in PBMC-engrafted NSG mice, bioluminescence (Example 15); assay type: in vivo, mouse; conditions: 0.4 mg/kg
# Protocol: (§1) To determine the in vivo efficacy of anti-BCMA×anti-CD3 bispecific antibodies (Abs), a xenogenic tumor study was performed. On day 0, immunodeficient NOD.Cg-Prkdc^scidII2rg^tm1Wjl/SzJ (NSG) mice were intravenously administered 2×10^6 BCMA^+ OPM-2 human multiple myeloma tumor cells that were engineered to also express firefly luciferase (OPM-2-luciferase cells). On day 10, the mice were intraperitoneally injected with 4×10^6 human peripheral blood mononuclear cells (PBMC) from a normal, healthy donor. […] The mice were administered these Abs twice more on days 25 and 28, for a total of three doses. Tumor growth was assessed through day 61 by measuring tumor bioluminescence (BLI) in anesthetized animals. As a positive control, a group of mice (n=5) was given only OPM-2-luciferase cells, but not PBMC or antibody.
# as §1, with “Implantation and measurement” for “To determine the in vivo efficacy”, “of” for “of anti-BCMA×anti-CD3 bispecific antibodies (Abs), a”, “tumors:” for “tumor study was performed.”, “NOD.Cg-Prkdc^scidII2rg^tm1Wkl/SzJ” for “NOD.Cg-Prkdc^scidII2rg^tm1Wjl/SzJ”
# Measurement of xenogenic tumor growth: BLI imaging was used to measure tumor burden. Mice were injected IP with 150 mg/kg of the luciferase substrate D-luciferin suspended in PBS. Five minutes after this injection, BLI imaging of the mice was performed under isoflurane anesthesia using the Xenogen IVIS system. Image acquisition was carried out with the field of view at D, subject height of 1.5 cm, and medium binning level with automatic exposure time determined by the Living Image Software. BLI signals were extracted using Living Image software: regions of interest were drawn around each tumor mass and photon intensities were recorded as p/s/cm2/sr.
# [3] = test system: established BCMA-expressing NCI-H929 multiple myeloma tumors; experiment: Xenogenic tumor model, established NCI-H929 tumors + human PBMC in NSG mice, treatment from day 5 (Example 12); assay type: in vivo, mouse; conditions: for Average Tumor Size (mm3) ± SEM on Day 5: day of first dose
# Protocol: To determine the in vivo efficacy of anti-BCMA×anti-CD3 bispecific antibodies (Abs), a xenogenic tumor study was performed. Immunodeficient NOD.Cg-Prkdc^scidII2rg^tm1Wjl/SzJ (NSG) mice were subcutaneously implanted with a mixture of 10×10^6 BCMA-expressing NCI-H929 human multiple myeloma tumor cells and 0.5×10^6 human peripheral blood mononuclear cells (PBMC) isolated from a normal, healthy donor. The tumors were allowed to grow and establish for 5 days until they were approximately 70 mm^3 in size. […] The mice were administered these Abs twice per week for a total of seven doses, and tumor growth was assessed over 55 days.
# Implantation and measurement of xenogenic tumors: NSG mice were subcutaneously implanted with a mixture of 10×10^6 BCMA-expressing NCI-H929 multiple myeloma cells and 0.5×10^6 PBMC derived from a normal, healthy donor. The tumors were allowed to grow and establish for 5 days until they were approximately 70 mm^3 in size. […] The mice were administered Abs twice per week for a total of seven doses. Tumor growth was measured with calipers twice per week for the duration of the experiment.
# Calculation of xenogenic tumor growth and inhibition: In order to determine tumor volume by external caliper, the greatest longitudinal diameter (length in mm) and the greatest transverse diameter (width in mm) were determined. Tumor volumes based on caliper measurements were calculated by the formula: Volume (mm^3)=(length× width^2)/2.
# [4] = Dose Levels 1, 2, 3 (3, 6, 12 mg; n = 24)
# [5] = Dose Levels 4, 5 (24, 48 mg; n = 17)
# [6] = patients with marrow plasmacytosis <50%
substance,measurement,setting,value
"REGN5458: anti-BCMA×anti-CD3 bispecific antibody: mAb21581 BCMA heavy chain, mAb7221G CD3 heavy chain and common light chain; SEQ ID NOs 126, 127, 129",Complete response (CR) or stringent CR (sCR),[1]; Dose Level 6 (96 mg; n = 8),0% (0)
same,Overall response rate (ORR),[1]; Dose Level 6 (96 mg; n = 8),63% (5)
same,Partial response (PR),[1]; Dose Level 6 (96 mg; n = 8),0% (0)
same,Very good partial response (VGPR),[1]; Dose Level 6 (96 mg; n = 8),63% (5)
same,Complete response (CR) or stringent CR (sCR),[1]; [4],21% (5)
same,Overall response rate (ORR),[1]; [4],29% (7)
same,Partial response (PR),[1]; [4],4% (1)
same,Very good partial response (VGPR),[1]; [4],4% (1)
same,Complete response (CR) or stringent CR (sCR),[1]; [5],18% (3)
same,Overall response rate (ORR),[1]; [5],41% (7)
same,Partial response (PR),[1]; [5],0% (0)
same,Very good partial response (VGPR),[1]; [5],24% (4)
same,objective response rate (ORR),[1]; dose level 6,62.5%
same,objective response rate (ORR),[1]; dose levels 1 to 3,29.2%
same,objective response rate (ORR),[1]; dose levels 4 and 5,41.2%
same,observed median duration of response,"[1]; human, in vivo",6.01 months
same,complete response (CR) or stringent CR,[1]; of responders,42.1%
same,responders achieving at least a very good partial response (VGPR),[1]; of responders,95%
same,responders with DOR ≥8 months,[1]; of responders,36.8%
same,responders with duration of response (DOR) ≥4 months,[1]; of responders,63.2%
same,ORR,[1]; patients with extramedullary plasmacytomas (EMP),14.3%
same,ORR,[1]; [6],71.4%
same,stringent complete response,[1]; [6],35.7%
same,very good partial response,[1]; [6],35.7%
same,ORR,[1]; patients with marrow plasmacytosis ≥50%,9.1%
same,ORR,[1]; patients without EMP,45%
same,complete response or stringent complete response,[1]; patients without EMP,20%
same,very good partial response,[1]; patients without EMP,22.5%
same,responders receiving ongoing treatment,[1]; to date,74%
same,Radiance [p/s/cm2^2/sr] 26 days post-implantation (mean ± SEM),[2],1.73E+06 ± 8.69E+05 p/s/cm2^2/sr
same,Radiance [p/s/cm2^2/sr] 31 days post-implantation (mean ± SEM),[2],3.50E+06 ± 2.42E+06 p/s/cm2^2/sr
same,Radiance [p/s/cm2^2/sr] 34 days post-implantation (mean ± SEM),[2],4.85E+06 ± 3.24E+06 p/s/cm2^2/sr
same,Radiance [p/s/cm2^2/sr] 38 days post-implantation (mean ± SEM),[2],5.30E+06 ± 3.44E+06 p/s/cm2^2/sr
same,Radiance [p/s/cm2^2/sr] 40 days post-implantation (mean ± SEM),[2],5.06E+06 ± 3.36E+06 p/s/cm2^2/sr
same,Radiance [p/s/cm2^2/sr] 47 days post-implantation (mean ± SEM),[2],7.76E+05 ± 7.85E+04 p/s/cm2^2/sr
same,Radiance [p/s/cm2^2/sr] 54 days post-implantation (mean ± SEM),[2],5.78E+05 ± 1.15E+05 p/s/cm2^2/sr
same,Radiance [p/s/cm2^2/sr] 61 days post-implantation (mean ± SEM),[2],5.23E+05 ± 4.10E+04 p/s/cm2^2/sr
same,tumor burden,[2]; three doses,reduced tumor burdens to background levels in the majority of animals
same,Radiance [p/s/cm2^2/sr] 5 days post-implantation (mean ± SEM),[2]; before first dose (day 21),5.87E+05 ± 2.40E+04 p/s/cm2^2/sr
same,Radiance [p/s/cm2^2/sr] 11 days post-implantation (mean ± SEM),[2]; before first dose (day 21),6.19E+05 ± 4.39E+04 p/s/cm2^2/sr
same,Radiance [p/s/cm2^2/sr] 20 days post-implantation (mean ± SEM),[2]; before first dose (day 21),1.81E+06 ± 2.37E+05 p/s/cm2^2/sr
same,Average Tumor Size (mm3) ± SEM on Day 8,[3]; 0.04 mg/kg,130.3 ± 16.7 mm3
same,Average Tumor Size (mm3) ± SEM on Day 15,[3]; 0.04 mg/kg,1031.2 ± 164.3 mm3
same,Average Tumor Size (mm3) ± SEM on Day 19,[3]; 0.04 mg/kg,2467.5 ± 370.0 mm3
same,Average Tumor Size (mm3) ± SEM on Day 22,[3]; 0.04 mg/kg,3745.7 ± 541.2 mm3
same,Average Tumor Size (mm3) ± SEM on Day 27,[3]; 0.04 mg/kg,1589.1 ± 0 mm3
same,Average Tumor Size (mm3) ± SEM on Day 30,[3]; 0.04 mg/kg,2886.5 ± 0 mm3
same,Average Tumor Size (mm3) ± SEM on Day 5,[3]; 0.04 mg/kg,58.1 ± 5.6 mm3
same,Average Tumor Size (mm3) ± SEM on Day 8,[3]; 0.4 mg/kg,120.3 ± 16.3 mm3
same,Average Tumor Size (mm3) ± SEM on Day 12,[3]; 0.4 mg/kg,262.7 ± 61.6 mm3
same,Average Tumor Size (mm3) ± SEM on Day 15,[3]; 0.4 mg/kg,476.2 ± 133.5 mm3
same,Average Tumor Size (mm3) ± SEM on Day 19,[3]; 0.4 mg/kg,1347.5 ± 334.7 mm3
same,Average Tumor Size (mm3) ± SEM on Day 22,[3]; 0.4 mg/kg,2068.5 ± 465.0 mm3
same,Average Tumor Size (mm3) ± SEM on Day 27,[3]; 0.4 mg/kg,3463.9 ± 1025.0 mm3
same,Average Tumor Size (mm3) ± SEM on Day 30,[3]; 0.4 mg/kg,2144.2 ± 2144.2 mm3
same,Average Tumor Size (mm3) ± SEM on Day 35,[3]; 0.4 mg/kg,0 ± 0 mm3
same,Average Tumor Size (mm3) ± SEM on Day 40,[3]; 0.4 mg/kg,0 ± 0 mm3
same,Average Tumor Size (mm3) ± SEM on Day 55,[3]; 0.4 mg/kg,0 ± 0 mm3
same,Average Tumor Size (mm3) ± SEM on Day 5,[3]; 0.4 mg/kg,69.3 ± 7.3 mm3
same,Average Tumor Size (mm3) ± SEM on Day 8,[3]; 4 mg/kg,64.7 ± 16.4 mm3
same,Average Tumor Size (mm3) ± SEM on Day 12,[3]; 4 mg/kg,19.5 ± 10.9 mm3
same,Average Tumor Size (mm3) ± SEM on Day 15,[3]; 4 mg/kg,25.6 ± 19.2 mm3
same,Average Tumor Size (mm3) ± SEM on Day 19,[3]; 4 mg/kg,40.6 ± 32.8 mm3
same,Average Tumor Size (mm3) ± SEM on Day 22,[3]; 4 mg/kg,78.3 ± 60.8 mm3
same,Average Tumor Size (mm3) ± SEM on Day 30,[3]; 4 mg/kg,411.3 ± 307.2 mm3
same,Average Tumor Size (mm3) ± SEM on Day 35,[3]; 4 mg/kg,633.5 ± 473.5 mm3
same,Average Tumor Size (mm3) ± SEM on Day 40,[3]; 4 mg/kg,369.5 ± 369.5 mm3
same,Average Tumor Size (mm3) ± SEM on Day 55,[3]; 4 mg/kg,0 ± 0 mm3
same,Average Tumor Size (mm3) ± SEM on Day 5,[3]; 4 mg/kg,71.9 ± 10.3 mm3

# From patent US11919965B2, “Methods of treating multiple myeloma with bispecific anti-BCMA x anti-CD3 antibodies” (Regeneron Pharmaceuticals, Inc., priority 2019, dated 2024)
